Reference: publication PMC7153278, “Discovery of Membrane-Bound Pyrophosphatase Inhibitors Derived from an Isoxazole Fragment” (ACS Medicinal Chemistry Letters, 2020)

What was measured:
[1] = target: Thermotoga maritima mPPase (TmPPase) (Thermotoga maritima, UniProt Q9S5X0); test: TmPPase inhibition assay (96-well plate, orthophosphate determination); format: biochemical; conditions: computed using the pIC50 and the Heavy Atom Count (LEHA) normalization method, Discovery Studio
Method: The inhibition assay was measured in 96 well plate assay as previously reported.5,6 Briefly, 1 µL of purified TmPPase (13 mg/mL) was reactivated in 99 µL of reactivation buffer (20 mM 2-(N-morpholino) ethanesulfonic acid (MES) pH 6.5, 3.5% (v/v) glycerol, 2 mM dithiothreitol (DTT), 4.5% dodecyl maltoside (DDM) and 12 mg/mL L-α-phosphatidylcholine from soybean) and incubated at 55 °C for 15 min. For the assay, to each tube strips, 0.2 µL of the reactivated enzyme was added to 14.8 µL of reaction buffer (200 mM Tris-Cl pH 8.0, 8.0 mM MgCl2, 333 mM KCl, and 67 mM NaCl) and 25 µL of inhibitor. The reaction mixtures were sealed with an adhesive sealing sheet (Thermo Scientific) and incubated at 71 °C for 5 min. The reactions were started with the addition of 10 µL of 2 mM sodium pyrophosphate, further incubation at 71 °C for 5 min and stopped by placing the reaction mixtures on ice for 10 min. The color development was done with the addition of ammonium heptamolybdate + ascorbic acid solution on ice for 10 min and then 90 µL of arsenic solution, at room temperature, for a minimum of 30 min. 180 µL of each reaction mixtures was then transferred into a clear 96 well polystyrene microplate and the absorbance was measured at 860 nm using a microplate spectrophotometer (MultiSkan Go, Thermo Scientific). The pilot inhibitor screening of 16 phosphate-mimicking fragments was done at 100 μM inhibitor concentration. Further screening was done with three different concentrations; 1 μM, 5 μM and 50 μM for soluble compounds, and 1 μM, 5 μM, and 20 μM for sparingly soluble compounds.6 The best hits were validated using 8 concentrations in triplicate in TmPPase.
The potent hits 12k and 12l compounds were then tested on the P. falciparum (PfPPase-VP1) membrane fractions expressed in baculovirus-infected insect cells (the expression method and further enzyme analysis will be described in more detail elsewhere). Briefly, to each tube strips, 2.4 µL of PfPPase-VP1 membrane fraction (5 mg/mL) was added into 12.6 µL of reaction buffer (200 mM Tris-Cl pH 8.0, 8.0 mM MgCl2, 333 mM KCl, 67 mM NaCl, 3.3 mM NaF, and 17 μM Gramicidin D) and 25 µL of inhibitor. The reaction mixtures were incubated at 30 °C for 5 min and the assay was started by the addition of 10 µL of 2 mM sodium pyrophosphate and further incubation at 30 °C for 10 min. The reaction termination and color development were done as before.
The in vitro anti-plasmodial activity assay strain 3D7 was maintained in culture as described previously.7 Briefly, parasites were cultured in O+ human erythrocytes at 5% haematocrit in RPMI - 1640 medium supplemented with 0.5% Albumax II (Gibco, Carlsbad, CA, USA), 200 μM hypoxanthine (Sigma, St. Louis, MO, USA) and 20 μg/mL gentamycin (Gibco). Parasites were synchronized with the sorbitol method as described. 8 Test compound was dissolved in DMSO to make a stock solution of 10 mM. Two -fold serial dilutions of the test compound were made in the culture medium to cover the range of 400 µM – 400 nM. Fifty microliters of each dilution were mixed in 96 well plate with 150 µL of 2% haematocrit of 0.5% parasitemia (ring stage). DMSO concentration in the highest compound concentration w as 0.1%. After 72 h incubation at 37 °C, the parasite growth was quantified using fluorescent SYBR Green I ® -based assay as described. 9 The half-maximal inhibitory concentration (IC 50) of the test compound was assessed using the non-linear regression fit model in Prism 7 (GraphPad Software). The potent anti-malarial drug, artemisinin, was use in parallel as a positive control. Each concentration of the test compound was tested in duplicate and the assay was repeated three times. The mean and standard deviation of the three repeats were used to estimate the IC50.
IC50 determinations were done using R 3.6.110 and the n-parameter logistic regression (nplr) package11 version 0.1-7. In this package, the weighted nplr, given x (compound concentrations) and […]

[2] = target: P. falciparum vacuolar H+-translocating pyrophosphatase (PfPPase-VP1) (Plasmodium falciparum, UniProt Q8IKR1); test: PfPPase-VP1 inhibition assay on membrane fractions from baculovirus-infected insect cells; format: biochemical; conditions: PfPPase-VP1 in the membrane
Sequence of P. falciparum vacuolar H+-translocating pyrophosphatase (PfPPase-VP1) (Q8IKR1 entry or part of it): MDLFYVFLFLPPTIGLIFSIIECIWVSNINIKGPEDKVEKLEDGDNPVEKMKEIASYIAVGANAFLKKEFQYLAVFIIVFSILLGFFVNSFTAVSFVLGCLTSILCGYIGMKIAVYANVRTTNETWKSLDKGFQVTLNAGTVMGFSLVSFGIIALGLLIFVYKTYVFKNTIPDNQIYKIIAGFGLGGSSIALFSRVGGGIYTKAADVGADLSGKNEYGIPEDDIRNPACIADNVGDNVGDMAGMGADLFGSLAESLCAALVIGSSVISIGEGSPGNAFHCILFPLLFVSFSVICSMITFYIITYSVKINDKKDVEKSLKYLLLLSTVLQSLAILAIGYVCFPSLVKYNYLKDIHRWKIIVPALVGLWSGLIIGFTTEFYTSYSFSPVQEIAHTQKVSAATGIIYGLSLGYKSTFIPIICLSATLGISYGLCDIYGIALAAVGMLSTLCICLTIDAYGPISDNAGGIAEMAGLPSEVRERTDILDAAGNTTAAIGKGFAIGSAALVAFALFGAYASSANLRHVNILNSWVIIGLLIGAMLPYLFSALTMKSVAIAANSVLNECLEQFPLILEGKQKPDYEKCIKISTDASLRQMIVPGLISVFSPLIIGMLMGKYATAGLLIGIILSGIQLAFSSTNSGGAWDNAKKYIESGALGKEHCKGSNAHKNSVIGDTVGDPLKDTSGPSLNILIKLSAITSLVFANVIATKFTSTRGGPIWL
Method: We then addressed the potential of 12k and 12l for translation to pathogenic proteins. These analogues differ by replacement of two methyl groups by two tert-butyl groups. In order to do so, we expressed the PfPPase-VP1 gene (PF3D7_1456800) in baculovirus-infected insect cells and performed the inhibition assay on the PfPPase-VP1 in the membrane (the method and further analysis will be described in more detail elsewhere).
The inhibition assay was measured in 96 well plate assay as previously reported.5,6 Briefly, 1 µL of purified TmPPase (13 mg/mL) was reactivated in 99 µL of reactivation buffer (20 mM 2-(N-morpholino) ethanesulfonic acid (MES) pH 6.5, 3.5% (v/v) glycerol, 2 mM dithiothreitol (DTT), 4.5% dodecyl maltoside (DDM) and 12 mg/mL L-α-phosphatidylcholine from soybean) and incubated at 55 °C for 15 min. For the assay, to each tube strips, 0.2 µL of the reactivated enzyme was added to 14.8 µL of reaction buffer (200 mM Tris-Cl pH 8.0, 8.0 mM MgCl2, 333 mM KCl, and 67 mM NaCl) and 25 µL of inhibitor. The reaction mixtures were sealed with an adhesive sealing sheet (Thermo Scientific) and incubated at 71 °C for 5 min. […] 180 µL of each reaction mixtures was then transferred into a clear 96 well polystyrene microplate and the absorbance was measured at 860 nm using a microplate spectrophotometer (MultiSkan Go, Thermo Scientific). […]

Sequence of Thermotoga maritima mPPase (TmPPase) (Q9S5X0 whole entry): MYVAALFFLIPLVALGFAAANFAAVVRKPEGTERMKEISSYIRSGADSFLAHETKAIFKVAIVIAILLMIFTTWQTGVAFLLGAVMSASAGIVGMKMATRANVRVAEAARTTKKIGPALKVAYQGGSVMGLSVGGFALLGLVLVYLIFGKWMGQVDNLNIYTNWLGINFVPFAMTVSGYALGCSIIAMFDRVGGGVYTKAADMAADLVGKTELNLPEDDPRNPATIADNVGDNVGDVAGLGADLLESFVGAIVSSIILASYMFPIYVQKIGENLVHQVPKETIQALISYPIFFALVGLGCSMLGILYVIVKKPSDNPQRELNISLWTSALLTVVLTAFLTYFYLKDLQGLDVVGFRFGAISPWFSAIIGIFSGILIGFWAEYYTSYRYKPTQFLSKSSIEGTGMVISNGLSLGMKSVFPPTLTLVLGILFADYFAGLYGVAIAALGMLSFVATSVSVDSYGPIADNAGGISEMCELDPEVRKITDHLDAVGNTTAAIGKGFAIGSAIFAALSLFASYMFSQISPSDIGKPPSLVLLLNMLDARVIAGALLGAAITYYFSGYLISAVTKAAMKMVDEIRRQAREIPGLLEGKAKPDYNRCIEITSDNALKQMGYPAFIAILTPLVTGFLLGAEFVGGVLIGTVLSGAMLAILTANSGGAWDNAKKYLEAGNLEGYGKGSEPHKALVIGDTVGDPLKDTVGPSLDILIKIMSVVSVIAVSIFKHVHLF

## CC(C)(C)c1cc(-c2cc(C(=O)Oc3ccccc3Br)no2)cc(C(C)(C)C)c1 [Compound 12l]
[1]
  LE (ligand efficiency): 0.17
[2]
  IC50, PfPPase-VP1 activity: did not show inhibition at the tested concentrations
